Measured values: the supplement of paper PMC10307832

How the values were obtained:
Assay in all cases: relative viability (nuclei count vs DMSO), 5 days (fraction); higher = more cells survive
NCI-H520 = tested on: NCI-H520
Procedure, shortened: (§1)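 Relative viability was taken as the ratio of nuclei in treated wells to nuclei in vehicle wells. Lung cancer cell lines in 1536-well plates received compounds by pin tool one day after seeding, either one drug alone or a fixed anchor-drug dose plus five library-drug doses (not always all listed) in √10 steps. Nuclei were counted on 4× images after 5 days of treatment, and values are medians of duplicate plates.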

EKVX = tested on: EKVX
Procedure, shortened: as §1

HCC-827 = tested on: HCC-827
Procedure, shortened: as §1

SW 1573 = tested on: SW 1573
Procedure, shortened: as §1

RERF-LC-KJ = tested on: RERF-LC-KJ
Procedure, shortened: as §1

NCI-H322M = tested on: NCI-H322M
Procedure, shortened: as §1

NCI-H2405 = tested on: NCI-H2405
Procedure, shortened: as §1

NCI-H1355 = tested on: NCI-H1355
Procedure, shortened: as §1

ABC-1 = tested on: ABC-1
Procedure, shortened: as §1

NCI-H1437 = tested on: NCI-H1437
Procedure, shortened: as §1

H3255 = tested on: H3255
Procedure, shortened: as §1

NCI-H2228 = tested on: NCI-H2228
Procedure, shortened: as §1

LK-2 = tested on: LK-2
Procedure, shortened: as §1

PC-3 [JPC-3] = tested on: PC-3 [JPC-3]
Procedure, shortened: as §1

HCC-15 = tested on: HCC-15
Procedure, shortened: as §1

NCI-H1650 = tested on: NCI-H1650
Procedure, shortened: as §1

NCI-H2342 = tested on: NCI-H2342
Procedure, shortened: as §1

NCI-H661 = tested on: NCI-H661
Procedure, shortened: as §1

COR-L23 = tested on: COR-L23
Procedure, shortened: as §1

NCI-H1734 = tested on: NCI-H1734
Procedure, shortened: as §1

CAL-12T = tested on: CAL-12T
Procedure, shortened: as §1

PC-14 = tested on: PC-14
Procedure, shortened: as §1

CC1(C)CCC(c2ccc(Cl)cc2)=C(CN2CCN(c3ccc(C(=O)NS(=O)(=O)c4ccc(N[C@H](CCN5CCOCC5)CSc5ccccc5)c(S(=O)(=O)C(F)(F)F)c4)cc3)CC2)C1 [Navitoclax] + O=C(c1cc(Cc2n[nH]c(=O)c3ccccc23)ccc1F)N1CCN(C(=O)C2CC2)CC1 [Olaparib] (partner 8 µM)
relative viability (NCI-H520; first compound 0.005 µM): 0.346 | relative viability (NCI-H520; first compound 0.01581 µM): 0.299 | relative viability (NCI-H520; first compound 0.05 µM): 0.336 | relative viability (NCI-H520; first compound 0.1581 µM): 0.318 | relative viability (NCI-H520; first compound 0.5 µM): 0.33 | relative viability (EKVX; first compound 0.005 µM): 0.887 | relative viability (EKVX; first compound 0.01581 µM): 0.994 | relative viability (EKVX; first compound 0.05 µM): 0.784 | relative viability (EKVX; first compound 0.1581 µM): 0.891 | relative viability (EKVX; first compound 0.5 µM): 0.885 | relative viability (HCC-827; first compound 0.005 µM): 0.714 | relative viability (HCC-827; first compound 0.01581 µM): 0.669 | relative viability (HCC-827; first compound 0.05 µM): 0.531 | relative viability (HCC-827; first compound 0.1581 µM): 0.638 | relative viability (HCC-827; first compound 0.5 µM): 0.632 | relative viability (SW 1573; first compound 0.005 µM): 0.486 | relative viability (SW 1573; first compound 0.01581 µM): 0.528 | relative viability (SW 1573; first compound 0.05 µM): 0.471 | relative viability (SW 1573; first compound 0.1581 µM): 0.431 | relative viability (SW 1573; first compound 0.5 µM): 0.367 | relative viability (RERF-LC-KJ; first compound 0.005 µM): 0.887 | relative viability (RERF-LC-KJ; first compound 0.01581 µM): 0.796 | relative viability (RERF-LC-KJ; first compound 0.05 µM): 0.917 | relative viability (RERF-LC-KJ; first compound 0.1581 µM): 0.861 | relative viability (RERF-LC-KJ; first compound 0.5 µM): 0.983 | relative viability (NCI-H322M; first compound 0.005 µM): 0.8 | relative viability (NCI-H322M; first compound 0.01581 µM): 0.984 | relative viability (NCI-H322M; first compound 0.05 µM): 0.754 | relative viability (NCI-H322M; first compound 0.1581 µM): 0.725 | relative viability (NCI-H322M; first compound 0.5 µM): 0.934 | relative viability (NCI-H2405; first compound 0.005 µM): 0.803 | relative viability (NCI-H2405; first compound 0.01581 µM): 0.881 | relative viability (NCI-H2405; first compound 0.05 µM): 0.953 | relative viability (NCI-H2405; first compound 0.1581 µM): 0.801 | relative viability (NCI-H2405; first compound 0.5 µM): 0.739 | relative viability (NCI-H1355; first compound 0.005 µM): 0.74 | relative viability (NCI-H1355; first compound 0.01581 µM): 0.731 | relative viability (NCI-H1355; first compound 0.05 µM): 0.734 | relative viability (NCI-H1355; first compound 0.1581 µM): 0.694 | relative viability (NCI-H1355; first compound 0.5 µM): 0.806 | relative viability (ABC-1; first compound 0.005 µM): 0.909 | relative viability (ABC-1; first compound 0.01581 µM): 0.783 | relative viability (ABC-1; first compound 0.05 µM): 0.838 | relative viability (ABC-1; first compound 0.1581 µM): 0.859 | relative viability (ABC-1; first compound 0.5 µM): 0.776 | relative viability (NCI-H1437; first compound 0.005 µM): 0.619 | relative viability (NCI-H1437; first compound 0.01581 µM): 0.659 | relative viability (NCI-H1437; first compound 0.05 µM): 0.655 | relative viability (NCI-H1437; first compound 0.1581 µM): 0.629 | relative viability (NCI-H1437; first compound 0.5 µM): 0.656 | relative viability (H3255; first compound 0.005 µM): 0.563 | relative viability (H3255; first compound 0.01581 µM): 0.626 | relative viability (H3255; first compound 0.05 µM): 0.57 | relative viability (H3255; first compound 0.1581 µM): 0.57 | relative viability (H3255; first compound 0.5 µM): 0.506 | relative viability (NCI-H2228; first compound 0.005 µM): 0.941 | relative viability (NCI-H2228; first compound 0.01581 µM): 0.754 | relative viability (NCI-H2228; first compound 0.1581 µM): 0.758 | relative viability (NCI-H2228; first compound 0.5 µM): 0.638 | relative viability (LK-2; first compound 0.005 µM): 0.797 | relative viability (LK-2; first compound 0.01581 µM): 0.744 | relative viability (LK-2; first compound 0.05 µM): 0.618 | relative viability (LK-2; first compound 0.1581 µM): 0.726 | relative viability (LK-2; first compound 0.5 µM): 0.798 | relative viability (PC-3 [JPC-3]; first compound 0.005 µM): 1.1 | relative viability (PC-3 [JPC-3]; first compound 0.01581 µM): 1.14 | relative viability (PC-3 [JPC-3]; first compound 0.05 µM): 1.22 | relative viability (PC-3 [JPC-3]; first compound 0.1581 µM): 1.07 | relative viability (PC-3 [JPC-3]; first compound 0.5 µM): 0.871 | relative viability (HCC-15; first compound 0.005 µM): 0.716 | relative viability (HCC-15; first compound 0.01581 µM): 0.787 | relative viability (HCC-15; first compound 0.05 µM): 0.626 | relative viability (HCC-15; first compound 0.1581 µM): 0.67 | relative viability (HCC-15; first compound 0.5 µM): 0.778 | relative viability (NCI-H1650; first compound 0.005 µM): 0.67 | relative viability (NCI-H1650; first compound 0.01581 µM): 0.829 | relative viability (NCI-H1650; first compound 0.05 µM): 0.803 | relative viability (NCI-H1650; first compound 0.1581 µM): 0.784 | relative viability (NCI-H1650; first compound 0.5 µM): 0.649 | relative viability (NCI-H2342; first compound 0.005 µM): 0.421 | relative viability (NCI-H2342; first compound 0.01581 µM): 0.44 | relative viability (NCI-H2342; first compound 0.05 µM): 0.322 | relative viability (NCI-H2342; first compound 0.1581 µM): 0.476 | relative viability (NCI-H2342; first compound 0.5 µM): 0.456 | relative viability (NCI-H661; first compound 0.005 µM): 0.751 | relative viability (NCI-H661; first compound 0.01581 µM): 0.797 | relative viability (NCI-H661; first compound 0.05 µM): 0.712 | relative viability (NCI-H661; first compound 0.1581 µM): 0.695 | relative viability (NCI-H661; first compound 0.5 µM): 0.751 | relative viability (COR-L23; first compound 0.005 µM): 0.374 | relative viability (COR-L23; first compound 0.01581 µM): 0.405 | relative viability (COR-L23; first compound 0.05 µM): 0.375 | relative viability (COR-L23; first compound 0.1581 µM): 0.367 | relative viability (COR-L23; first compound 0.5 µM): 0.398 | relative viability (NCI-H1734; first compound 0.005 µM): 0.626 | relative viability (NCI-H1734; first compound 0.01581 µM): 0.67 | relative viability (NCI-H1734; first compound 0.1581 µM): 0.534 | relative viability (NCI-H1734; first compound 0.5 µM): 0.535 | relative viability (CAL-12T; first compound 0.005 µM): 0.715 | relative viability (CAL-12T; first compound 0.01581 µM): 0.651 | relative viability (CAL-12T; first compound 0.05 µM): 0.674 | relative viability (CAL-12T; first compound 0.1581 µM): 0.75 | relative viability (CAL-12T; first compound 0.5 µM): 0.791 | relative viability (PC-14; first compound 0.005 µM): 0.266 | relative viability (PC-14; first compound 0.01581 µM): 0.28 | relative viability (PC-14; first compound 0.05 µM): 0.283 | relative viability (PC-14; first compound 0.1581 µM): 0.219 | relative viability (PC-14; first compound 0.5 µM): 0.235
